Reference: patent publication US20230113037A1 (Bayer Aktiengesellschaft, priority 2019, published 2023)
Where two headings read alike, the source gives them in different places.

How the values were obtained:
AHR [1] = target: T1, AHR (Homo sapiens, UniProt P35869); experiment: In vitro assay 1: antagonism in human cell line (AHR transactivation, firefly luciferase reporter, kynurenic acid prestimulated); format: cell-based; settings: AHR Antagonism Human IC50 [M]
T1 construct: U87 MG glioblastoma cells (ATCC #HTB-14) endogenously expressing AHR; endogenous in cells; host or cells: U87 MG glioblastoma cells (ATCC #HTB-14)
T1 sequence (P35869 11-848): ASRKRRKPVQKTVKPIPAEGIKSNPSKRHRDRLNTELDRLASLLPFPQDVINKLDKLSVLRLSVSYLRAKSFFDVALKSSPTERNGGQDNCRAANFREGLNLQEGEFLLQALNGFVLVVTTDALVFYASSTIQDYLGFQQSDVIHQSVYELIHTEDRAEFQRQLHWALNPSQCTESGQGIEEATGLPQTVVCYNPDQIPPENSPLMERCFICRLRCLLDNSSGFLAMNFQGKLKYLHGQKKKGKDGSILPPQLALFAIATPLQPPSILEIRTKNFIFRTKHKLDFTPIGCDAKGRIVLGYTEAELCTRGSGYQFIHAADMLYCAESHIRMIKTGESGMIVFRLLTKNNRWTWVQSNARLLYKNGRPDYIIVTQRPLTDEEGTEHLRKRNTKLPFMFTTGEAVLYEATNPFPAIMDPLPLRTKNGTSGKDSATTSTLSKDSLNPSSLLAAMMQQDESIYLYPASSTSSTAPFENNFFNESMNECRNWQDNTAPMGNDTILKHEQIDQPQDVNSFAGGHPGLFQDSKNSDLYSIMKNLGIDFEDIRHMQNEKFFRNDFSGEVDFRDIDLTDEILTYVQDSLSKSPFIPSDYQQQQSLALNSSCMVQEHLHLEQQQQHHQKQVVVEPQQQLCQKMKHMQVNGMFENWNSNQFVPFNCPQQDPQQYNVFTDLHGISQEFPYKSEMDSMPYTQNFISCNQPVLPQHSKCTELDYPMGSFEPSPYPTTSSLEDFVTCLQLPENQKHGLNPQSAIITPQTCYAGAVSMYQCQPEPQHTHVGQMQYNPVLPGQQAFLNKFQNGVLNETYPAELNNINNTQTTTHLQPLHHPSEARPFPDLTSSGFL
In short: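 Antagonism is measured against kynurenic acid prestimulation in U87 MG glioblastoma cells carrying stable DRE-luciferase and Renilla reporters. Positive inhibition control: 150 μM kynurenic acid with 5 μM staurosporine. Values are normalized to controls; repeats are averaged or given as medians.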

AHR [2] = target: T2, AHR (Mus musculus, UniProt P30561); experiment: In vitro assay 3: antagonism in mouse cell line (AHR transactivation, firefly luciferase reporter, kynurenic acid prestimulated); format: cell-based; settings: 200 μM kynurenic acid, 20 hours, read-out: AHR Antagonism Mouse IC50
T2 sequence (P30561 1-848 P471L/N533S/M589L): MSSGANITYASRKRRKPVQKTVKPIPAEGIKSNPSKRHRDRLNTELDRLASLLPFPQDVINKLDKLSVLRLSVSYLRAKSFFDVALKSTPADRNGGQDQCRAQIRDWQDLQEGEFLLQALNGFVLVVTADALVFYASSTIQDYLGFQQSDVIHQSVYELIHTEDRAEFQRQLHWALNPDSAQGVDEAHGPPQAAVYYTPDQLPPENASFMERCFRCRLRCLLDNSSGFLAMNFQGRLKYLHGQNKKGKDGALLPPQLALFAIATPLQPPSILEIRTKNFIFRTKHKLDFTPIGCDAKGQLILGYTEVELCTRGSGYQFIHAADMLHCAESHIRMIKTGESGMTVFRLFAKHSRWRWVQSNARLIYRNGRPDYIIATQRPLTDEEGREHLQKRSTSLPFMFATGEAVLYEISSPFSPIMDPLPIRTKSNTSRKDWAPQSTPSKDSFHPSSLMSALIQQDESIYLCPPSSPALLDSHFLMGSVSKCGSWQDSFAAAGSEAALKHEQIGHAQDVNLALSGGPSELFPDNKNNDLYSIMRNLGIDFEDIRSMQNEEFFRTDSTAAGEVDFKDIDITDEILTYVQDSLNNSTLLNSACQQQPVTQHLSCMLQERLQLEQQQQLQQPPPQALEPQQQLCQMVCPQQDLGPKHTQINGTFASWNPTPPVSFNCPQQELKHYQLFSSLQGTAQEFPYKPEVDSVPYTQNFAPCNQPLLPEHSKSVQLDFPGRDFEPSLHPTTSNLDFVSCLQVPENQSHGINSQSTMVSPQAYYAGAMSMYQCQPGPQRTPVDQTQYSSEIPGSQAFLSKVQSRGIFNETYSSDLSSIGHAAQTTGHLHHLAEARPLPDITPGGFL
In short: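 Kynurenic acid-prestimulated mouse reporter cells; stable AHR-inducible firefly luc construct with DRE sites in promoter. No-agonist wells = positive inhibition ctrl. Luminescence normalized to pos/neg ctrls; n>1 reported as mean or median.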

[3] = Hepa 1c1c7 cells, firefly luciferase reporter

SMILES	IC50 (AHR [1]) [M]	IC50 (AHR [2]; mouse Hepa 1c1c7 cells) [nM]	IC50 (AHR [1]; firefly luciferase reporter) [M]	IC50 (AHR [2]; [3]) [nM]
Cc1cc(-c2nc3c4ccccc4nc(N[C@H]4CCCCNC4=O)n3n2)cs1 [Example 353]	2.36e-07	27.4	–	–
CC[C@H](Nc1nc2c(C(F)(F)F)cccc2c2nc(-c3ccnn3C)nn12)C(N)=O [Example 805, (2S)-2-{[2-(1-methyl-1H-pyrazol-5-yl)-7-(trifluoromethyl)[1,2,4]triazolo[1,5-c]quinazolin-5-yl]amino}butanamide]	–	–	1.9e-07	70.4
COc1ccc(-c2nc3c4ccccc4nc(N[C@H](C)C(=O)NCCN4CCCCC4)n3n2)cc1 [Example 897, N^2-[2-(4-methoxyphenyl)[1,2,4]triazolo[1,5-c]quinazolin-5-yl]-N-[2-(piperidin-1-yl)ethyl]-D-alaninamide]	–	–	4.02e-08	28.5
COc1cccc(-c2nc3c4ccccc4nc(NC4CCCNC4=O)n3n2)c1 (single isomer, unassigned) [Example 119, 3-{[2-(3-methoxyphenyl)[1,2,4]triazolo[1,5-c]quinazolin-5-yl]amino}piperidin-2-one]	7.8e-07	202	–	–
COc1ccc(-c2nc3c4ccccc4nc(NC4CNCCNC4=O)n3n2)cc1 (single isomer, unassigned) [Example 35, 6-{[2-(4-methoxyphenyl)[1,2,4]triazolo[1,5-c]quinazolin-5-yl]amino}-1,4-diazepan-5-one]	1.55e-06	60.4	–	–
Cn1cc(-c2nc3c4cccc(Br)c4nc(N[C@@H]4CCCNC4=O)n3n2)cn1 [Example 221, (3R)-3-{[7-bromo-2-(1-methyl-1H-pyrazol-4-yl)[1,2,4]triazolo[1,5-c]quinazolin-5-yl]amino}piperidin-2-one]	3.46e-07	653	–	–
O=C1NCCNC[C@H]1Nc1nc2ccccc2c2nc(-c3cnn(CC4CC4)c3)nn12 [Example 416, (6R)-6-({2-[1-(cyclopropylmethyl)-1H-pyrazol-4-yl][1,2,4]triazolo[1,5-c]quinazolin-5-yl}amino)-1,4-diazepan-5-one]	2.1e-06	354	–	–
O=C1NCCC[C@H]1Nc1nc2ccccc2c2nc(-c3ccsc3)nn12 [Example 343, (3R)-3-{[2-(thiophen-3-yl)[1,2,4]triazolo[1,5-c]quinazolin-5-yl]amino}piperidin-2-one]	6.67e-08	178	–	–

Now from value to compound:

IC50 (AHR [1]) [M]	IC50 (AHR [2]; mouse Hepa 1c1c7 cells) [nM]	IC50 (AHR [1]; firefly luciferase reporter) [M]	IC50 (AHR [2]; [3]) [nM]	SMILES
3.36e-09	1.39	–	–	CC[C@@H](Nc1nc2c(Br)cccc2c2nc(-c3ccc(Cl)cc3OC(F)(F)F)nn12)C(N)=O [Example 573, (2R)-2-({7-bromo-2-[4-chloro-2-(trifluoromethoxy)phenyl][1,2,4]triazolo[1,5-c]quinazolin-5-yl}amino)butanamide]
1.81e-08	1.44	–	–	CCC[C@@H](Nc1nc2ccccc2c2nc(-c3ccccc3OC(F)F)nn12)C(=O)NC [Example 477, N^2-{2-[2-(difluoromethoxy)phenyl][1,2,4]triazolo[1,5-c]quinazolin-5-yl}-N-methyl-D-norvalinamide]
2.43e-09	0.642	–	–	O=C1NCCCC[C@H]1Nc1nc2ccccc2c2nc(-c3ccc(Br)cc3OC(F)(F)F)nn12 [Example 440, (3R)-3-({2-[4-bromo-2-(trifluoromethoxy)phenyl][1,2,4]triazolo[1,5-c]quinazolin-5-yl}amino)azepan-2-one]
1.64e-08	47	–	–	COc1ccc(-c2nc3c4cccc(SC)c4nc(N[C@@H]4CCCCNC4=O)n3n2)cc1 [Example 766, (3R)-3-{[2-(4-methoxyphenyl)-7-(methylsulfanyl)[1,2,4]triazolo[1,5-c]quinazolin-5-yl]amino}azepan-2-one]
1.43e-08	60.6	–	–	COc1ccc(-c2nc3c4cccc(C5(C(F)(F)F)CC5)c4nc(N[C@@H]4CNCCNC4=O)n3n2)cc1 [Example 431, (6R)-6-({2-(4-methoxyphenyl)-7-[1-(trifluoromethyl)cyclopropyl][1,2,4]triazolo[1,5-c]quinazolin-5-yl}amino)-1,4-diazepan-5-one]
